Assay: Short-term, medium-term and autosampler stability in plasma samples and extracts
Type: physicochemical, human
Settings: for Stability in plasma samples at −40 °C (time stable): tested 2 weeks, 1 and 2 months
Procedure: Sample stability was measured at two concentration levels (LQC and HQC) in triplicate. Long-term stability was evaluated at −40 °C for 2 weeks, 1 and 2 months; short-term stability was evaluated at room temperature (rt) under light exposure and with light protection and at 4 °C (light protection) for 1, 2, 3, 4, and 7 days. Autosampler stability was also assessed by storing extracts in the autosampler compartment at 10 °C for 1, 2, 3, 4, and 7 days.
The mean concentration values obtained from each measurement were compared to the concentrations measured at T0 before storage. Stability data are expressed as percentual difference from T0.

[1] = plasma samples stored at −40 °C

Row | Compound | Stability in plasma samples at −40 °C (time stable) [1] | also measured
1 | NC(CO)C(=O)NNCc1ccc(O)c(O)c1O (stereo not shown) [benserazide] | – | Stability of the compound (in words) (method development, conditions not stated): severe stability issues
2 | COC(=O)C(N)Cc1ccc(O)c(O)c1 (stereo not shown) [LDME, levodopa methyl ester] | – | Stability in plasma samples at −40 °C (in words) [1]: not satisfactory
3 | C[C@@](Cc1ccc(O)c(O)c1)(NN)C(=O)O [Carbidopa, carbidopa] | up to 1 months | –
4 | N[C@@H](Cc1ccc(O)c(O)c1)C(=O)O [L-DOPA, Levodopa] | up to 2 months | –
